In patent publication US10583109B2, “Use of silver(I) complexes as anticancer agents” (University of Johannesburg, priority 2012, dated 2020):

Key:
[1] = system: SNO-oesophageal cancer cells; assay: Morphological features of SNO-oesophageal cancer cells by inverse light microscopy; assay type: cell-based; settings: 24 hours of treatment
Method: Morphological studies were done by means of an Axiovert 25 inverted microscope (Carl Zeiss, Göttingen, Germany) with Axio Vision 3.1 software (Carl Zeiss, Göttingen, Germany) using an magnification of 100×.
After 24 hours of treatment with complexes (1)-(5) including their ligands the cells were examined under said Axiovert 25 inverted light microscope. This was done to determine how the complexes of the present invention influence morphology which was compared to 100 μM Cisplatin (apoptotic control) and 15% H2O2 (necrotic control).
Light microscope images indicating the morphology of the differentially treated SNO-oesophageal cancer cells is shown in FIG. 8. An untreated control (a) including 100 μM Cisplatin (b), an apoptotic control and 15% H2O2 (c), and a necrotic control was included. Cells were treated with 10 μM silver(I) thiocyanate phosphine complexes (1)-(5) as well as their separate ligands (Ligand-1 to Ligand-5, respectively) (FIGS. 8d to 8m). Black arrows represent signs of apoptosis, while the white arrows represent signs of necrosis.
An Axiovert 25 inverted microscope was used to examine if these complexes affect the morphological features of the malignant cells in any other way. This was done at a magnification of 100× with the use of Axio Version 3.1 software (Carl Zeiss, Gottingen, Germany).
Morphological studies where done after 24 hours of treatment to determine how these compounds influence/change specific features of the malignant SNO-oesophageal cancer cells, compared to the untreated (UC) and 1% DMSO vehicle control. The treated cancer cells including their controls were examined under an Axiovert 25 inverted light microscope (Carl Zeiss, Göttingen, Germany) with Axio Vision 3.1 software (Carl Zeiss, Göttingen, Germany) using a 100× magnification. In FIG. 19, the morphology of the different controls including Ligand-10 and complexes (10)-(12) are represented. To predict the targeting mechanisms of these compounds, the treated cells were compared to 100 μM Cisplatin (apoptotic control) and 25% H2O2 (necrotic control).

[2] = system: MCF-7 breast cancer cells; assay: AlamarBlue viability and proliferation assay of MCF-7 breast cancer cells; assay type: cell-based, human
Method: For the biological studies, MCF-7 breast cancer cells were obtained from an immortal cell line from human adenocarcinoma from (primary site) mammary gland and (metastatic site) pleural effusion (ATCC no HTB-22).
MCF-7 breast cancer cells were cultured in Dulbecco's modified Eagle's medium (DMEM), 13.53 g/L with sodium bicarbonate (NaHCO3), 3.7 g/L supplemented with 10% foetal bovine serum (FBS), 1% gentamycin and 5% Penicillin/Streptomycin/Fungizone in 75 cm^3 culture flasks. Cells were subcultured twice a week and incubated at 37° C. with 5% CO2 in a humidified atmosphere. Hanks balanced salt solution (HBSS), supplemented DMEM media and trypsin versene were warmed to 37° C. prior to subculturing. Cells were washed twice with 10 ml Hanks balanced salt solution for 1 minute and were then incubated for 4.5 to 5 minutes at 37° C. with 6 ml trypsin versene to remove the cells from the culture flask. To inactivate the trypsin versene, 10 ml supplemented DMEM was added and the cells were pelleted by centrifugation at 1028 g for 4 minutes with an Allegra™ 25R Centrifuge. The pellet was resuspended in 1 ml supplemented DMEM and 500 μl of the cell suspension was then added to 25 ml of supplemented DMEM media in 75 cm^3 culture flasks.
MCF-7 breast cancer cells, in terms of a first study, and SNO-oesophageal cancer cells, in terms of a second study, were treated with 10 μM silverthiocyanide complexes (1)-(5), as well as their ligands (Ligand-1 to Ligand-5) over a 24 hour incubation period. […] An untreated negative control (UT) was exposed to similar conditions as the treated cells and monitored during the experimental study.
The AlamarBlue® viability and proliferation assay of complexes (1)-(5) for the MCF-7 breast cancer cells is depicted in FIGS. 1A to 1F. The percentage viability of control samples determined by the AlamarBlue® viability and proliferation assay is depicted in FIG. 1A. […] A significant difference (P<0.001) between the control and the treated samples was calculated using Student's T-test and is indicated by an asterisk.
This Figure depicts the percentage viability of MCF-7 cells treated with various concentrations of complex (1) as determined by the AlamarBlue® viability and proliferation assay. […] The asterisk indicates a significant difference between a sample and the control (P<0.001) as calculated with Student's T-test.
FIG. 1C to FIG. 1F represent the dose dependant studies of complexes (2) to (5), respectively. In each of these Figures, the percentage viability of MCF-7 cells treated with various concentrations of complexes (2) to (5) was determined by the AlamarBlue® viability and proliferation assay. […] The asterisk indicates a significant difference between a sample and the control (P<0.001) as calculated with Student's T-test. […]

[3] = system: SNO-oesophageal cancer cells; assay: Flow cytometric analysis (Annexin-V FITC / PI) of apoptosis and/or necrosis in SNO-oesophageal cancer cells; assay type: cell-based; settings: 14 μM, 24 hours
Method: To determine if either apoptosis or necrosis occurred, the cells were double labelled with Annexin-V FITC and Propidium Iodide (PI) by means of an Annexin-V FITC assay kit (Serotec, UK). This was done according to manufacturer's instructions with a few adjustments. Briefly, the cells (±3×10^5 cells/ml) were washed twice with cold phosphate buffered saline (PBS), followed by the addition of 100 μl 1× binding buffer. Two and a half microliters of Annexin-V along with 5 μl PI were added in the dark and was incubated for 15 minutes at room temperature. After incubation, 400 μl 1× binding buffer was added and cells were analysed using the FACSAria flow cytometer (BD Biosciences, San Jose, Calif.) with FACSDiva software (BD Biosciences, San Jose, Calif.) 492 nm (excitation) and 520 nm for Annexin and 488 nm and 575 nm(emission) for PI.
The cell membrane contains a negatively charged phosphatidylserine (PS) on the inner leaflet and is exposed when apoptosis or necrosis takes place. Annexin-V interacts with PS in both apoptotic and necrotic cells, making these cellular deaths undistinguishable. This is overcome by using PI as an alternative label that interacts with the exposed DNA of necrotic cells only, leading to the fluorescent detection of both these labels. Pie charts (FIG. 9) were constructed for all the controls (including Ligand-1 to Ligand-5) and the different silver(I) thiocyanate phosphine complexes (1)-(5).
Pie charts representing the four different flow cytometric quadrants of Annexin-V and […] to determine the mode of cellular death induced in differentially treated SNO-oesophageal cells are represented in FIG. 9. An untreated control (A), apoptotic control (B) and necrotic control (C) were included. Cells were treated with 10 μM of the different ligands including the silver(I) thiocyanate phosphine complexes (1)-(5). An average percentage was calculated for all segments where the SEM is n=3 for all treatments except for 15% H2O2 (n=2). The four segments represent the following: White segment—negative for FITC and PI, Light grey segment—positive for FITC but negative for PI, Dark grey segment—positive for PI but negative for FITC and Black segment—positive for both FITC and PI. Cells undergoing early apoptosis are represented by the light grey segment, while those of late apoptosis and primary necrosis are represented by the black segment. Necrotic cells are represented by the dark grey segment and intact viable cells are shown by the white segment.
Approximately 3×10^5 cells were washed with ice cold phosphate buffered saline solution (PBS). The cells were double labeled using an Annexin-V FITC assay kit adjusting the protocol. A 1× binding buffer (100 μl) was used to fix the cells. Annexin-V (2.5 μl) and Propidium Iodide (PI—5 μl) labels were added respectively followed by a 15 minute incubation, at room temperature, in the dark. After the incubation period, 400 μl of the 1× binding buffer was added, where counting of the cellular events was made using an FACSAria flow cytometer (BD Biosciences, San Jose, Calif.) with FACSDiva software (BD Biosciences, San Jose, Calif.). This technique in particular identifies whether predicted apoptotic cell death (or necrosis) was induced by these complexes.
As observed in FIG. 14, dot blots represent the mode of cellular death induced in the SNO-oesophageal cancer cells after 24 hours of treatment. FIG. 14(a): 0.1% DMSO, FIG. 14(b): 100 μM CDDP, FIG. 14(c): 25% H2O2, FIG. 14(d-i): complexes (6)-(9). An average percentage was calculated for all quadrants where the SEM is n=2 for all treatments. The four quadrants represent the following: Quadrant Q3 is negative for FITC and PI, Quadrant Q4 is positive for FITC but negative for PI, Quadrant Q1 is positive for PI but negative for FITC and Quadrant Q2 is positive for both FITC and PI. Cells undergoing early apoptosis are more likely to be found in Quadrant Q4 while those of late apoptosis and primary necrosis will be found in Quadrant Q2. […]

[4] = system: SNO-oesophageal cancer cells; assay type: cell-based; settings: for cancer cell death compared to the vehicle control: 14 μM, 24 hour treatment

Question: Which “necrotic cell death (morphology)” value ([1]; 10 μM) does the source give for `Cc1ccc([P+](c2ccc(C)cc2)(c2ccc(C)cc2)[Ag]2([P+](c3ccc(C)cc3)(c3ccc(C)cc3)c3ccc(C)cc3)[N+]#C[S][Ag]([P+](c3ccc(C)cc3)(c3ccc(C)cc3)c3ccc(C)cc3)([P+](c3ccc(C)cc3)(c3ccc(C)cc3)c3ccc(C)cc3)[N+]#C[S]2)cc1` [complex (2), [AgSCN{P(4-MeC6H4)3}2]2] here?
Answer: Necrotic cell death was also observed

Question: And the “decrease in viability and proliferation” value ([2]; 10 μM, 24 hours after treatment, compared to the untreated control)?
Answer: ~70%

Question: How did the “necrotic cell death (morphology)” value ([1]; 14 μM) turn out when `[Br][Ag]([PH](c1ccccc1)(c1ccccc1)c1ccccc1)([PH](c1ccccc1)(c1ccccc1)c1ccccc1)[PH](c1ccccc1)(c1ccccc1)c1ccccc1` [complex (11), AgBr(PPh3)3] was run?
Answer: Minimal necrotic cell death

Question: And the “signs of apoptosis / cell death (morphology)” value ([1]; 14 μM)?
Answer: multiple signs of apoptosis

Question: And the “apoptotic cells (early and late stages), flow cytometry” value [3]?
Answer: 47.23%

Question: And the “necrotic cells positive for PI, flow cytometry” value [3]?
Answer: 14.73%

Question: What about the “cancer cell death compared to the vehicle control” value [4] of the same compound?
Answer: significantly induced cancer cell death

Question: `c1ccc(P(c2ccccc2)c2ccccc2)cc1` [Ligand-10, PPh3, reference compound] was tested. Which “signs of apoptosis / cell death (morphology)” value ([1]; 14 μM) did it give?
Answer: minimal cell death similar to apoptosis

Question: What about the “influence on cellular viability and PS externalisation, flow cytometry” value [3] of the same compound?
Answer: did not influence

Question: And the viability ([4]; 14 µM)?
Answer: 99.03%

Question: For `[Cl][Ag]([PH](c1ccccc1)(c1ccccc1)c1ccccc1)([PH](c1ccccc1)(c1ccccc1)c1ccccc1)[PH](c1ccccc1)(c1ccccc1)c1ccccc1` [complex (10), AgCl(PPh3)3], which “necrotic cell death (morphology)” value ([1]; 14 μM) is on record?
Answer: Minimal necrotic cell death

Question: And the “signs of apoptosis / cell death (morphology)” value ([1]; 14 μM)?
Answer: multiple signs of apoptosis

Question: What about the “cancer cell death compared to the vehicle control” value [4] of the same compound?
Answer: significantly induced cancer cell death

Question: With `Clc1ccc([P+](c2ccc(Cl)cc2)(c2ccc(Cl)cc2)[Ag]2([P+](c3ccc(Cl)cc3)(c3ccc(Cl)cc3)c3ccc(Cl)cc3)[N+]#C[S][Ag]([P+](c3ccc(Cl)cc3)(c3ccc(Cl)cc3)c3ccc(Cl)cc3)([P+](c3ccc(Cl)cc3)(c3ccc(Cl)cc3)c3ccc(Cl)cc3)[N+]#C[S]2)cc1` [complex (4), [AgSCN{P(4-ClC6H4)3}2]2] as the compound, how does the “cytotoxic activity (ranking)” value ([2]; MCF-7 cells) read?
Answer: strongest

Question: What does the source list for AgCN(PPh3)3 [complex (12)]?
Answer: necrotic cell death (morphology) ([1]; 14 μM): Minimal necrotic cell death; signs of apoptosis / cell death (morphology) ([1]; 14 μM): multiple signs of apoptosis; cancer cell death compared to the vehicle control [4]: significantly induced cancer cell death
